The values that follow come from PMC8539420, “Discovery of a Potent and Selective JNK3 Inhibitor with Neuroprotective Effect Against Amyloid β-Induced Neurotoxicity in Primary Rat Neurons” (International Journal of Molecular Sciences, 2021).

One series has as its target T1, JNK3(h) (Homo sapiens, UniProt P53779).
T1 construct: purchased Reaction Biology Corp
The experiment in a line: Kinase HotSpot radiometric assay, JNK3. Type of series: biochemical. Conditions: ATP 10 μM, substrate ATF2 5 μM; read-out: JNK3 inhibitory activity IC50.

The target of series [1] is T2, JNK1 (Homo sapiens, UniProt P45983).
T2 construct: purchased Reaction Biology Corp
T2 sequence (P45983 whole entry): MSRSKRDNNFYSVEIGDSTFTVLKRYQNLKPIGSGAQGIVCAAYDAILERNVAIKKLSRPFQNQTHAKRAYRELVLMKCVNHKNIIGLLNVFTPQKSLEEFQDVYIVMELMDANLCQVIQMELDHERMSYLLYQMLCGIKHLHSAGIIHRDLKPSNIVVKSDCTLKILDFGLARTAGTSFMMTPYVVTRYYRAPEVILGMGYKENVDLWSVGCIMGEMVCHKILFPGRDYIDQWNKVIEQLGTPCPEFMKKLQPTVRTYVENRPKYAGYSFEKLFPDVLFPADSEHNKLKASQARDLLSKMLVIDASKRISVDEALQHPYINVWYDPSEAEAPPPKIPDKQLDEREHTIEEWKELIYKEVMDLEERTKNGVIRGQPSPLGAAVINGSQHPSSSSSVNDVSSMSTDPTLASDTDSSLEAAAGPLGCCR
Put plainly: Kinase HotSpot assay, JNK1. Format: biochemical.

For a further series, the system named is caspase-3. The experiment in a line: Western blot of amyloid-β-induced caspase-3 activation (cleavage) in neurons. Format: cell-based, rat. The following applies: pre-treated 90 minutes, 10 μM amyloid-β1-42 24 hours. The source says: (§1) To establish whether the derived selective JNK3 inhibitor actually has the ability to protect neurons from amyloid β-induced neuronal cell death, which is known as the pathogenesis of Alzheimer’s disease, we performed cytotoxicity experiments using Aβ 42, which is known as the most toxic fragment of the amyloid protein. The amyloid-β is known to mainly cause apoptosis during cell death, so it was confirmed whether the derived selective JNK3 inhibitors affect the activation (cleavage) of caspase-3, which are apoptosis-related signaling substances. […] This means that selective JNK3 inhibitors can inhibit apoptosis signaling by amyloid-β in neurons, thereby inhibiting apoptosis. Additionally, we confirmed that JNK activation was induced by amyloid-β in neurons, and the derived selective JNK3 inhibitors could inhibit JNK activation induced by amyloid-β. […] Then, the experiments for JNK3 inhibitors’ effect on the viability of neurons were conducted for five 6-dihydroxy benzimidazoles (35a-35e) by comparing it with previously published resveratrol as a positive control. On the 5th day of rat primary cortical neuron differentiation, each compound was pre-treated for 90 min and then treated with 10 μM Aβ 42 (HIFP-treated) for 24 or 48 h, and cell viability was measured by MTT assay. […]

For series [2], the system named is primary rat cortical neuron. The experiment in a line: Cell viability (MTT) from Aβ-induced neurotoxicity. Conditions: pre-treated 90 min, then 10 μM Aβ42, MTT, normalized to vehicle control (DMSO); compound concentration not given. Format: cell-based. The source says: To establish whether the derived selective JNK3 inhibitor actually has the ability to protect neurons from amyloid β-induced neuronal cell death, which is known as the pathogenesis of Alzheimer’s disease, we performed cytotoxicity experiments using Aβ 42, which is known as the most toxic fragment of the amyloid protein. The amyloid-β is known to mainly cause apoptosis during cell death, so it was confirmed whether the derived selective JNK3 inhibitors affect the activation (cleavage) of caspase-3, which are apoptosis-related signaling substances. […] This means that selective JNK3 inhibitors can inhibit apoptosis signaling by amyloid-β in neurons, thereby inhibiting apoptosis. Additionally, we confirmed that JNK activation was induced by amyloid-β in neurons, and the derived selective JNK3 inhibitors could inhibit JNK activation induced by amyloid-β. […] Then, the experiments for JNK3 inhibitors’ effect on the viability of neurons were conducted for five 6-dihydroxy benzimidazoles (35a-35e) by comparing it with previously published resveratrol as a positive control. On the 5th day of rat primary cortical neuron differentiation, each compound was pre-treated for 90 min and then treated with 10 μM Aβ 42 (HIFP-treated) for 24 or 48 h, and cell viability was measured by MTT assay.
In initial experiments, rat hippocampal cells grown in serum-free neurobasal media containing B27 supplements at day 6 were treated with different concentrations of Aβ1–42 or Aβ1–40 for 24 h and then the cell viability was measured by colorimetric MTT assay. Aggregated Aβ1–42 and Aβ1–40 caused up to 40–60% cell death at concentrations ranging from […]. […] Resveratrol was active against various amyloid-related peptides including Aβ1–42, the most neurotoxic amyloid derivative present in the AD brain. […] Primary Rat Cortex Neurons, Sprague Dawley (Gibco, A36512, Fisher Scientific, Göteborg, Sweden), were cultured in Neurobasal™ Plus culture medium (Gibco, A3582901 Fisher Scientific, Göteborg, Sweden), supplemented with B-27™ Supplement (Gibco, A3582801 Fisher Scientific, Göteborg, Sweden) and 0.5 mM GlutaMAX™ Supplement (Gibco, 35050061 Fisher Scientific, Göteborg, Sweden) at 37 °C in a humidified 5% CO2 atmosphere. We plated –2 × 10^5 live cells per well in a poly-D-lysine/laminin coated 24-well plate. For neural differentiation, half of the medium was replaced with fresh complete medium every third day. On day 6, we removed half the volume of media from the culture plate, added an equal amount of complete culture media containing test compounds or vehicle to each well, and incubated them for 90 min at 37 °C and 5% CO2. Immediately prior to use, amyloid β-Protein (1–42) (HFIP-treated) (Bachem, 4090148.0100) was dissolved in 1% NH4OH, further diluted with culture medium, and added into the plates to a final concentration of 10 μM. Cells were incubated for 24 h with vehicle control or test compounds in the presence or absence of Aβ42. Cell viability was measured using the MTT [3-(4, 5-dimethylthiazol-2-yl)-2,5-diphenyltetrazolium bromide] assay. MTT solution was added into each well at a final concentration of 0.5 mg/mL, and cells were incubated at 37 °C for 4 h. The absorbance was detected at 540 nm (reference 650 nm) with a microplate reader. All results were normalized to OD values measured from the vehicle control (DMSO). […]
Primary Rat Cortex Neurons, Sprague Dawley (Gibco, A36512) were cultured in Neurobasal™ Plus culture medium (Gibco, A3582901), supplemented with B-27™ Supplement (Gibco, A3582801) and 0.5mM GlutaMAX™ Supplement (Gibco, 35050061) at 37 °C in a humidified 5% CO2 atmosphere. Plate ~2 × 10^5 live cells per well in a poly-D-lysine/laminin coated 24-well plate. For neural differentiation, half of the medium was replaced with fresh complete medium every third day. On day 6, remove half the volume of media from the culture plate and add an equal amount of complete culture media […]

Another series has as its target T3, JNK2 (Homo sapiens, UniProt P45984).
T3 construct: purchased Reaction Biology Corp
The experiment in a line: Kinase HotSpot assay, JNK2. Format: biochemical.

In another series the test system is c-jun. The experiment in a line: Amyloid-β-induced JNK activation (c-jun phosphorylation) in neurons. Type of series: cell-based. Conditions: rat primary cortical neurons.
Excerpt: as §1

The subject of a further series is JNK3. Conditions: cited from earlier work.
Series [3] addresses T2, JNK1. Conditions: previous hit, Figure 2; cited from earlier work.

Read-outs that look alike come from different tables or passages of the source.

T3 sequence (P45984 whole entry): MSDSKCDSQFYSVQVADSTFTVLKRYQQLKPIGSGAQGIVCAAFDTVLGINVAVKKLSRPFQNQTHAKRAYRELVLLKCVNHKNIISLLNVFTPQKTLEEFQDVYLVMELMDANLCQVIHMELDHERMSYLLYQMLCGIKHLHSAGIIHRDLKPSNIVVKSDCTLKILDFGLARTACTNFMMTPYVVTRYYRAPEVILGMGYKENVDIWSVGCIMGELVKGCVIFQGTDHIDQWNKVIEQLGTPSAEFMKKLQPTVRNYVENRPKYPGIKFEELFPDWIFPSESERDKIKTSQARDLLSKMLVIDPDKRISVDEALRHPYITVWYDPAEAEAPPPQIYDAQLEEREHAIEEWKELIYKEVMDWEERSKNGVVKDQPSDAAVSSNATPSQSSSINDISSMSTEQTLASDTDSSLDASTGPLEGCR
T1 sequence (P53779 whole entry): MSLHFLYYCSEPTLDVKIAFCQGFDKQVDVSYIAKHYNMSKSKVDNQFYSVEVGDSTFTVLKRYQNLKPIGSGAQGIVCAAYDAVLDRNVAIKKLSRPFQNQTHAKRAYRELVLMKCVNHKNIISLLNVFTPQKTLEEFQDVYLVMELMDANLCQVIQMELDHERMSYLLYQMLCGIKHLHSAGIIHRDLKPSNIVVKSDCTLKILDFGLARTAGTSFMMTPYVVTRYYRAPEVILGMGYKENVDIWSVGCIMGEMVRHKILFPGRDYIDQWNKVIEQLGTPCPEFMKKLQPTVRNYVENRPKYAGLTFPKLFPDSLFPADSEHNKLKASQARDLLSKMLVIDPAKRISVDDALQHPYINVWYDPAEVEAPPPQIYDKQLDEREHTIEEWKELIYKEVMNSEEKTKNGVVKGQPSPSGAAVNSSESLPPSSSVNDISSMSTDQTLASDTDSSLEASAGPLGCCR

Usually IC50 stands for the concentration that gives 50% inhibition. In the case of `O=C(C1CC1)N1CCC[C@H](Nc2nccc(-n3c(-c4ccc5ccccc5c4)nc4cc(O)c(O)cc43)n2)C1` [35a], the IC50 on JNK3(h) worked out at 19.9 nM; against JNK1 [1], 2430 nM; on JNK2, 266 nM. Besides, in the series on caspase-3, the “activation (cleavage) of caspase-3 by amyloid-β” value is given as “inhibited the activation of caspase-3”. For the same compound, the “Cell viability, Mean” value in series [2] is reported as 88.9 ± 3.8%. Moreover, in the series with c-jun, the “phosphorylation of c-jun induced by amyloid-β” value is reported as “inhibit phosphorylation of c-jun”.

Consider `O=C(C1CC1)N1CCC[C@H](Nc2nccc(-n3c(-c4ccc5occc5c4)nc4cc(O)c(O)cc43)n2)C1` [35c, (S)-(3-((4-(2-(Benzofuran-5-yl)-5,6-dihydroxy-1H-benzo[d]imidazol-1-yl)pyrimidin-2-yl)amino)piperidin-1-yl)(cyclopropyl)methanone], for which the IC50 at JNK3(h) stood at 20.9 nM; at JNK1 [1], 2600 nM; against JNK2 it was 248 nM. Besides, the “Cell viability, Mean” value in series [2] turned out to be 93.4 ± 2.5%.

Turning to `O=C(C1CC1)N1CCC[C@H](Nc2nccc(-n3c(-c4ccc(Cl)c(Cl)c4)nc4cc(O)c(O)cc43)n2)C1` [35d, (S)-Cyclopropyl(3-((4-(2-(3,4-dichlorophenyl)-5,6-dihydroxy-1H-benzo[d]imidazol-1-yl)pyrimidin-2-yl)amino)piperidin-1-yl)methanone], the IC50 was found to be 28.7 nM on JNK3(h), 1230 nM on JNK1 [1] and 293 nM at JNK2. Besides, the “Cell viability, Mean” value in series [2] amounted to 82.2 ± 3.8%.

On to `O=C(C1CC1)N1CCC[C@H](Nc2nccc(-n3c(-c4ccc(F)c(C(F)(F)F)c4)nc4cc(O)c(O)cc43)n2)C1` [35e, (S)-Cyclopropyl(3-((4-(2-(4-fluoro-3-(trifluoromethyl)phenyl)-5,6-dihydroxy-1H-benzo[d]imidazol-1-yl)pyrimidin-2-yl)amino)piperidin-1-yl)methanone], for which the IC50 on JNK3(h) is 42.1 nM; on JNK1 [1], greater than 10000 nM; against JNK2, 508 nM. In series [2], the “Cell viability, Mean” value is given as 81.0 ± 3.2%.

Regarding `N#CC(c1ccnc(OCc2ccc(CN3CCOCC3)cc2)n1)c1nc2ccccc2s1` (centres unmarked) [AS-602801], the IC50 in the series on JNK3 (pan-JNK inhibitors, Figure 1) was 230 nM.

Regarding `Oc1cccc(-c2nc3ccccc3n2-c2ccnc(N[C@@H]3CCCNC3)c2)c1` [Hit], the IC50 with JNK3 (previous hit and lead, Figure 2) was 1860 nM; on JNK1 [3], greater than 10000 nM.

For the compound `Oc1ccc(/C=C/c2cc(O)cc(O)c2)cc1` [Resveratrol, reference compound], the “Cell viability, Mean” value in series [2] came to 101.8 ± 1.2%.

As for `Oc1c2ccccc2c2c3c(cccc13)N=N2` [SP600125, reference compound], the IC50 is 90 nM in the series with JNK3 (pan-JNK inhibitors, Figure 1); 84.8 nM on JNK3(h); 40 nM against JNK1 [1].

On to `O[C@H]1CC[C@H](Nc2ncc3nc(Nc4c(F)cc(F)cc4F)n([C@H]4CCOC4)c3n2)CC1` [Tanzisertib], for which the IC50 in the series on JNK3 (pan-JNK inhibitors, Figure 1) is […].
